SMILES strings stand for the structures. Calls of active or inactive are those of the source. The rule behind the calls is not given here.

Data set [1] deals with Escherichia coli. Briefly: Antibacterial activity against Escherichia coli DH5alpha assessed as bacterial cell density at 500 uM relative to control. Type of data set: functional, DH5[alpha].
Data set [2] deals with Pseudomonas aeruginosa. Put plainly: Antibacterial activity against Pseudomonas aeruginosa NBRC13275 assessed as bacterial cell density at 500 uM relative to control. Type of data set: functional.
Data set [3] relates to Staphylococcus aureus. Briefly: Antibacterial activity against Staphylococcus aureus NBRC13276 assessed as bacterial cell density at 500 uM relative to control. Type of data set: functional.
For data set [4], the system named is Streptococcus mutans. Put plainly: Antibacterial activity against Streptococcus mutans NBRC13955 assessed as bacterial cell density at 500 uM relative to control. The class given is functional.
Data set [5] concerns Escherichia coli. Put plainly: Antibiofilm activity against Escherichia coli DH5alpha assessed as inhibition of biofilm formation at 500 uM incubated for 24 hrs by crystal violet staining based microtiter plate reader assay relative to control; values are per cent of control. The following applies: DH5[alpha].
Data set [6] has as its system Streptococcus mutans. Put plainly: Antibiofilm activity against Streptococcus mutans NBRC13955 assessed as inhibition of biofilm formation at 500 uM incubated for 24 hrs by crystal violet staining based microtiter plate reader assay relative to control; values are per cent of control. The note with it: NBRC13955, 24 h.
Data set [7] concerns Pseudomonas aeruginosa. Briefly: Antibiofilm activity against Pseudomonas aeruginosa NBRC13275 assessed as inhibition of biofilm formation at 500 uM incubated for 6 hrs by crystal violet staining based microtiter plate reader assay relative to control; values are per cent of control. The following applies: NBRC13275, 6 h.
Data set [8] relates to Staphylococcus aureus. Put plainly: Antibiofilm activity against Staphylococcus aureus NBRC13276 assessed as inhibition of biofilm formation at 500 uM incubated for 24 hrs by crystal violet staining based microtiter plate reader assay relative to control; values are per cent of control. The following applies: NBRC13276, 24 h.
Data set [9] in a line: Growth inhibition of Staphylococcus aureus NBRC13276 at 1000 uM.
Data set [10] deals with Pseudomonas aeruginosa. Put plainly: Antimicrobial activity against Pseudomonas aeruginosa assessed as inhibition of flagella synthesis relative to control. Type of data set: functional, organism-based.

Turning to `Nc1nc2c(ncn2CC(=O)N2CCN(C(=O)OCc3ccccc3)CCN(C(=O)Cn3cnc4c(=O)[nH]c(N)nc43)CCN(C(=O)OCc3ccccc3)CC2)c(=O)[nH]1`, the Activity is reported as 91% with Escherichia coli [1], 105% in the data set on Pseudomonas aeruginosa [2], 111% in the data set with Staphylococcus aureus [3] and 143% with Streptococcus mutans [4]. Also, the biofilm formation (% of control) at 500 µM in the data set on Escherichia coli [5] was 138%; with Streptococcus mutans [6] it was 17%; in the data set on Pseudomonas aeruginosa [7] it was 86%; in the data set on Staphylococcus aureus [8], 80%.
Turning to `CC(=O)NCCNCCNC(=O)Cn1cnc2c(=O)[nH]c(N)nc21`, the Activity turned out to be 85% in the data set with Escherichia coli [1], 119% in the data set with Pseudomonas aeruginosa [2], 100% with Staphylococcus aureus [3] and 92% in the data set on Streptococcus mutans [4]. In addition, the biofilm formation (% of control) at 500 µM in the data set on Escherichia coli [5] was found to be 108%; in the data set on Streptococcus mutans [6], 101%; in the data set on Pseudomonas aeruginosa [7], 99%; with Staphylococcus aureus [8], 135%.
For `Nc1nc2c(ncn2CC(=O)NCCN(CCNC(=O)Cn2cnc3c(=O)[nH]c(N)nc32)CC(=O)O)c(=O)[nH]1`, the Activity is recorded as 95% in the data set on Escherichia coli [1], 126% in the data set with Pseudomonas aeruginosa [2], 99% in the data set with Staphylococcus aureus [3] and 188% with Streptococcus mutans [4]. For the same molecule, the biofilm formation (% of control) at 500 µM with Escherichia coli [5] came to 138%; with Streptococcus mutans [6] it was 78%; with Pseudomonas aeruginosa [7], 82%; in the data set on Staphylococcus aureus [8] it was 87%.
Regarding `CC(C)C(=O)N1CCN(C(=O)Cn2cnc3c(=O)[nH]c(N)nc32)CCN(C(=O)C(C)C)CCN(C(=O)Cn2cnc3c(=O)[nH]c(N)nc32)CC1`, the Activity in the data set on Escherichia coli [1] turned out to be 559%; in the data set on Pseudomonas aeruginosa [2] it was 313%; in the data set on Staphylococcus aureus [3], 267%; with Streptococcus mutans [4] it was 206%. In addition, the biofilm formation (% of control) at 500 µM in the data set on Escherichia coli [5] was 118%; in the data set with Streptococcus mutans [6] it was 88%; in the data set on Pseudomonas aeruginosa [7] it was 114%; in the data set with Staphylococcus aureus [8] it was 87%.
As to `Nc1nc2c(ncn2CC(=O)N2CCNCCN(C(=O)Cn3cnc4c(=O)[nH]c(N)nc43)CCNCC2)c(=O)[nH]1`, the Activity in the data set on Escherichia coli [1] is on record as 93%; with Pseudomonas aeruginosa [2], 100%; in the data set on Staphylococcus aureus [3], 108%; in the data set on Streptococcus mutans [4], 138%. For the same molecule, the biofilm formation (% of control) at 500 µM in the data set on Escherichia coli [5] worked out at 133%; in the data set on Streptococcus mutans [6] it was 96%; in the data set with Pseudomonas aeruginosa [7], 85%; in the data set with Staphylococcus aureus [8], 89%.
In the case of `CCC(=O)N(CCNC(=O)Cn1cnc2c(=O)[nH]c(N)nc21)CCNC(=O)Cn1cnc2c(=O)[nH]c(N)nc21`, the Activity in the data set on Escherichia coli [1] was 95%; with Pseudomonas aeruginosa [2], 98%; with Staphylococcus aureus [3] it was 92%; with Streptococcus mutans [4], 106%. Besides, the biofilm formation (% of control) at 500 µM in the data set with Escherichia coli [5] was 97%; with Streptococcus mutans [6], 125%; in the data set with Pseudomonas aeruginosa [7] it was 94%; in the data set with Staphylococcus aureus [8], 85%.
Take `CC(=O)N(CCNC(=O)Cn1cnc2c(=O)[nH]c(N)nc21)CCNC(=O)Cn1cnc2c(=O)[nH]c(N)nc21`: the Activity came to 101% with Escherichia coli [1], 119% with Pseudomonas aeruginosa [2], 108% in the data set on Staphylococcus aureus [3] and 154% with Streptococcus mutans [4]. Besides, the biofilm formation (% of control) at 500 µM in the data set with Escherichia coli [5] turned out to be 116%; with Streptococcus mutans [6], 87%; with Pseudomonas aeruginosa [7], 104%; with Staphylococcus aureus [8], 76%.
As to `CC(C)C(=O)N(CCNC(=O)Cn1cnc2c(=O)[nH]c(N)nc21)CCNC(=O)Cn1cnc2c(=O)[nH]c(N)nc21`, the Activity in the data set with Escherichia coli [1] is listed as 97%; in the data set with Pseudomonas aeruginosa [2] it was 98%; in the data set on Staphylococcus aureus [3], 92%; in the data set with Streptococcus mutans [4] it was 104%. Also, the biofilm formation (% of control) at 500 µM with Escherichia coli [5] amounted to 107%; with Streptococcus mutans [6], 147%; in the data set with Pseudomonas aeruginosa [7] it was 83%; in the data set with Staphylococcus aureus [8] it was 103%.
On to `NCCN(CCNC(=O)Cn1cnc2c(=O)[nH]c(N)nc21)C(=O)Cn1cnc2c(=O)[nH]c(N)nc21`, for which the Activity was determined as 95% in the data set with Escherichia coli [1], 116% in the data set with Pseudomonas aeruginosa [2], 124% in the data set with Staphylococcus aureus [3] and 98% in the data set with Streptococcus mutans [4]. For the same molecule, the biofilm formation (% of control) at 500 µM was 104% in the data set on Escherichia coli [5], 87% with Streptococcus mutans [6], 103% with Pseudomonas aeruginosa [7] and 87% in the data set with Staphylococcus aureus [8].
Regarding `Nc1nc2c(ncn2CC(=O)NCCNCCNC(=O)Cn2cnc3c(=O)[nH]c(N)nc32)c(=O)[nH]1`, the Activity with Escherichia coli [1] was determined as 95%; in the data set with Pseudomonas aeruginosa [2], 112%; in the data set with Staphylococcus aureus [3], 102%; in the data set with Streptococcus mutans [4], 109%. Further, the biofilm formation (% of control) at 500 µM with Escherichia coli [5] was found to be 99%; in the data set with Streptococcus mutans [6], 98%; in the data set with Pseudomonas aeruginosa [7] it was 87%; in the data set with Staphylococcus aureus [8], 42%.
Regarding `Nc1nc2c(ncn2[C@@H]2O[C@@H]3COP(=O)(O)O[C@H]4[C@@H](O)[C@H](n5cnc6c(=O)[nH]c(N)nc65)O[C@@H]4COP(=O)(O)O[C@H]3[C@H]2O)c(=O)[nH]1`, the Activity is 76% in the data set with Escherichia coli [1], 78% in the data set on Pseudomonas aeruginosa [2], 106% in the data set on Staphylococcus aureus [3] and 98% in the data set with Streptococcus mutans [4]. Besides, the biofilm formation (% of control) at 500 µM amounted to 81% in the data set with Escherichia coli [5], 18% with Streptococcus mutans [6], 48% in the data set on Pseudomonas aeruginosa [7] and 123% with Staphylococcus aureus [8].
Consider `CCC(=O)N1CCN(C(=O)Cn2cnc3c(=O)[nH]c(N)nc32)CCN(C(=O)CC)CCN(C(=O)Cn2cnc3c(=O)[nH]c(N)nc32)CC1`, for which the Activity was found to be 105% in the data set with Escherichia coli [1], 118% in the data set with Pseudomonas aeruginosa [2], 124% in the data set on Staphylococcus aureus [3] and 117% with Streptococcus mutans [4]. The biofilm formation (% of control) at 500 µM in the data set with Escherichia coli [5] was found to be 153%; in the data set on Streptococcus mutans [6] it was 46%; in the data set on Pseudomonas aeruginosa [7] it was 76%; with Staphylococcus aureus [8] it was 76%.
Turning to `Nc1nc2c(ncn2CC(=O)N2CCN(CC(=O)O)CCN(C(=O)Cn3cnc4c(=O)[nH]c(N)nc43)CCN(CC(=O)O)CC2)c(=O)[nH]1`, the Activity is reported as 85% with Escherichia coli [1], 90% in the data set on Pseudomonas aeruginosa [2], 117% in the data set on Staphylococcus aureus [3] and 105% with Streptococcus mutans [4]. Further, the biofilm formation (% of control) at 500 µM in the data set with Escherichia coli [5] is 83%; in the data set on Streptococcus mutans [6], 90%; in the data set with Pseudomonas aeruginosa [7] it was 82%; with Staphylococcus aureus [8], 74%.
In the case of `CC(=O)N1CCN(C(=O)Cn2cnc3c(=O)[nH]c(N)nc32)CCN(C(C)=O)CCN(C(=O)Cn2cnc3c(=O)[nH]c(N)nc32)CC1`, the Activity is 52% with Escherichia coli [1], 90% in the data set with Pseudomonas aeruginosa [2], 150% in the data set with Staphylococcus aureus [3] and 136% with Streptococcus mutans [4]. Besides, in data set [9], the “growth inhibition (GI)” value was “Non-Toxic”. Also, in the data set with Pseudomonas aeruginosa [10], the result was inactive. The biofilm formation (% of control) at 500 µM came to 36% in the data set with Escherichia coli [5], 40% with Streptococcus mutans [6], 60% in the data set on Pseudomonas aeruginosa [7] and 20% with Staphylococcus aureus [8].
As for `Nc1nc2c(ncn2CC(=O)N2CCNCCN(C(=O)Cn3cnc4c(=O)[nH]c(N)nc43)CC2)c(=O)[nH]1`, the Activity worked out at 95% with Escherichia coli [1], 105% in the data set with Pseudomonas aeruginosa [2], 103% in the data set on Staphylococcus aureus [3] and 121% in the data set on Streptococcus mutans [4]. For the same molecule, the biofilm formation (% of control) at 500 µM in the data set with Escherichia coli [5] is 103%; in the data set with Streptococcus mutans [6] it was 92%; in the data set on Pseudomonas aeruginosa [7], 105%; with Staphylococcus aureus [8] it was 92%.

These data come from ChEMBL document CHEMBL4680303, “Amine skeleton-based c-di-GMP derivatives as biofilm formation inhibitors” (Bioorg Med Chem Lett, 2021).
